Assay results from ChEMBL document CHEMBL1275550, “In vitro activity of doripenem, a carbapenem for the treatment of challenging infections caused by gram-negative bacteria, against recent clinical isolates from the United States” (2008).
Values after ≈ are worked out from the molar mass of the structure shown.

What was measured:
Assay type in all cases: functional
[1] = test system: Streptococcus pneumoniae; assay: Antimicrobial activity against penicillin-intermediate Streptococcus pneumoniae assessed as intermediate isolate by broth microdilution method
[2] = test system: Streptococcus pneumoniae; assay: Antimicrobial activity against penicillin-resistant Streptococcus pneumoniae assessed as resistant isolate by broth microdilution method
[3] = test system: Staphylococcus aureus; assay: Antimicrobial activity against methicillin-susceptible Staphylococcus aureus by broth microdilution method
[4] = test system: Staphylococcus aureus; assay: Antimicrobial activity against methicillin-susceptible Staphylococcus aureus assessed as susceptible isolate by broth microdilution method
[5] = test system: Staphylococcus; assay: Antimicrobial activity against methicillin-susceptible coagulase-negative Staphylococcus by broth microdilution method
[6] = test system: Staphylococcus; assay: Antimicrobial activity against methicillin-susceptible coagulase-negative Staphylococcus assessed as susceptible isolate by broth microdilution method
[7] = test system: Streptococcus pneumoniae; assay: Antimicrobial activity against penicillin-susceptible Streptococcus pneumoniae by broth microdilution method
[8] = test system: Streptococcus pneumoniae; assay: Antimicrobial activity against penicillin-resistant Streptococcus pneumoniae by broth microdilution method
[9] = test system: Streptococcus pneumoniae; assay: Antimicrobial activity against […] assessed as susceptible isolate by broth microdilution method
[10] = test system: Enterobacteriaceae; assay: Antimicrobial activity against ceftazidime-susceptible Enterobacteriaceae by broth microdilution method
[11] = test system: Enterobacteriaceae; assay: Antimicrobial activity against Ceftazidime non-susceptible Enterobacteriaceae by broth microdilution method
[12] = test system: Enterobacteriaceae; assay: Antimicrobial activity against ceftazidime-susceptible Enterobacteriaceae assessed as susceptible isolate by broth microdilution method
[13] = test system: Enterobacteriaceae; assay: Antimicrobial activity against ceftazidime-susceptible Enterobacteriaceae assessed as intermediate isolate by broth microdilution method
[14] = test system: Enterobacteriaceae; assay: Antimicrobial activity against ceftazidime-susceptible Enterobacteriaceae assessed as resistant isolate by broth microdilution method
[15] = test system: Enterobacteriaceae; assay: Antimicrobial activity against Ceftazidime non-susceptible Enterobacteriaceae assessed as susceptible isolate by broth microdilution method
[16] = test system: Enterobacteriaceae; assay: Antimicrobial activity against Ceftazidime non-susceptible Enterobacteriaceae assessed as intermediate isolate by broth microdilution method
[17] = test system: Enterobacteriaceae; assay: Antimicrobial activity against Ceftazidime non-susceptible Enterobacteriaceae assessed as resistant isolate by broth microdilution method
[18] = test system: Escherichia coli; assay: Antimicrobial activity against Non-ESBL Escherichia coli by broth microdilution method
[19] = test system: Escherichia coli; assay: Antimicrobial activity against ESBL producing Escherichia coli by broth microdilution method
[20] = test system: Escherichia coli; assay: Antimicrobial activity against Non-ESBL Escherichia coli assessed as susceptible isolate by broth microdilution method
[21] = test system: Escherichia coli; assay: Antimicrobial activity against Non-ESBL Escherichia coli assessed as intermediate isolate by broth microdilution method
[22] = test system: Escherichia coli; assay: Antimicrobial activity against Non-ESBL Escherichia coli assessed as resistant isolate by broth microdilution method
[23] = test system: Escherichia coli; assay: Antimicrobial activity against ESBL producing Escherichia coli assessed as susceptible isolate by broth microdilution method
[24] = test system: Escherichia coli; assay: Antimicrobial activity against ESBL producing Escherichia coli assessed as intermediate isolate by broth microdilution method
[25] = test system: Escherichia coli; assay: Antimicrobial activity against ESBL producing Escherichia coli assessed as resistant isolate by broth microdilution method
[26] = test system: Klebsiella pneumoniae; assay: Antimicrobial activity against Non-ESBL Klebsiella pneumoniae by broth microdilution method
[27] = test system: Klebsiella pneumoniae; assay: Antimicrobial activity against ESBL producing Klebsiella pneumoniae by broth microdilution method
[28] = test system: Klebsiella pneumoniae; assay: Antimicrobial activity against Non-ESBL Klebsiella pneumoniae assessed as susceptible isolate by broth microdilution method
[29] = test system: Klebsiella pneumoniae; assay: Antimicrobial activity against Non-ESBL Klebsiella pneumoniae assessed as intermediate isolate by broth microdilution method
[30] = test system: Klebsiella pneumoniae; assay: Antimicrobial activity against ESBL producing Klebsiella pneumoniae assessed as susceptible isolate by broth microdilution method
[31] = test system: Klebsiella pneumoniae; assay: Antimicrobial activity against ESBL producing Klebsiella pneumoniae assessed as intermediate isolate by broth microdilution method
[32] = test system: Klebsiella pneumoniae; assay: Antimicrobial activity against ESBL producing Klebsiella pneumoniae assessed as resistant isolate by broth microdilution method
[33] = test system: Proteus mirabilis; assay: Antimicrobial activity against Non-ESBL Proteus mirabilis by broth microdilution method
[34] = test system: Proteus mirabilis; assay: Antimicrobial activity against ESBL producing Proteus mirabilis by broth microdilution method
[35] = test system: Proteus mirabilis; assay: Antimicrobial activity against Non-ESBL Proteus mirabilis assessed as susceptible isolate by broth microdilution method
[36] = test system: Proteus mirabilis; assay: Antimicrobial activity against Non-ESBL Proteus mirabilis assessed as intermediate isolate by broth microdilution method
[37] = test system: Proteus mirabilis; assay: Antimicrobial activity against ESBL producing Proteus mirabilis assessed as susceptible isolate by broth microdilution method
[38] = test system: Proteus mirabilis; assay: Antimicrobial activity against ESBL producing Proteus mirabilis assessed as intermediate isolate by broth microdilution method
[39] = test system: Enterobacter cloacae; assay: Antimicrobial activity against Enterobacter cloacae with nonderepressed AmpC beta-lactamsae by broth microdilution method
[40] = test system: Enterobacter cloacae; assay: Antimicrobial activity against Enterobacter cloacae with derepressed AmpC beta-lactamsae by broth microdilution method
[41] = test system: Enterobacter cloacae; assay: Antimicrobial activity against Enterobacter cloacae with nonderepressed AmpC beta-lactamsae assessed as susceptible isolate by broth microdilution method
[42] = test system: Enterobacter cloacae; assay: Antimicrobial activity against Enterobacter cloacae with nonderepressed AmpC beta-lactamsae assessed as intermediate isolate by broth microdilution method
[43] = test system: Enterobacter cloacae; assay: Antimicrobial activity against Enterobacter cloacae with nonderepressed AmpC beta-lactamsae assessed as resistant isolate by broth microdilution method
[44] = test system: Enterobacter cloacae; assay: Antimicrobial activity against Enterobacter cloacae with derepressed AmpC beta-lactamsae assessed as susceptible isolate by broth microdilution method
[45] = test system: Enterobacter cloacae; assay: Antimicrobial activity against Enterobacter cloacae with derepressed AmpC beta-lactamsae assessed as intermediate isolate by broth microdilution method
[46] = test system: Enterobacter cloacae; assay: Antimicrobial activity against Enterobacter cloacae with derepressed AmpC beta-lactamsae assessed as resistant isolate by broth microdilution method
[47] = test system: Citrobacter; assay: Antimicrobial activity against Citrobacter with nonderepressed AmpC beta-lactamsae by broth microdilution method
[48] = test system: Citrobacter; assay: Antimicrobial activity against Citrobacter with derepressed AmpC beta-lactamsae by broth microdilution method
[49] = test system: Citrobacter; assay: Antimicrobial activity against Citrobacter with nonderepressed AmpC beta-lactamsae assessed as susceptible isolate by broth microdilution method
[50] = test system: Citrobacter; assay: Antimicrobial activity against Citrobacter with nonderepressed AmpC beta-lactamsae assessed as intermediate isolate by broth microdilution method
[51] = test system: Citrobacter; assay: Antimicrobial activity against Citrobacter with derepressed AmpC beta-lactamsae assessed as susceptible isolate by broth microdilution method
[52] = test system: Citrobacter; assay: Antimicrobial activity against Citrobacter with derepressed AmpC beta-lactamsae assessed as resistant isolate by broth microdilution method
[53] = test system: Serratia marcescens; assay: Antimicrobial activity against Ceftazidime susceptible Serratia marcescens by broth microdilution method
[54] = test system: Serratia marcescens; assay: Antimicrobial activity against Ceftazidime non-susceptible Serratia marcescens by broth microdilution method
[55] = test system: Serratia marcescens; assay: Antimicrobial activity against Ceftazidime susceptible Serratia marcescens assessed as susceptible isolate by broth microdilution method
[56] = test system: Serratia marcescens; assay: Antimicrobial activity against Ceftazidime susceptible Serratia marcescens assessed as intermediate isolate by broth microdilution method
[57] = test system: Serratia marcescens; assay: Antimicrobial activity against Ceftazidime susceptible Serratia marcescens assessed as resistant isolate by broth microdilution method
[58] = test system: Serratia marcescens; assay: Antimicrobial activity against Ceftazidime non-susceptible Serratia marcescens assessed as susceptible isolate by broth microdilution method
[59] = test system: Serratia marcescens; assay: Antimicrobial activity against Ceftazidime non-susceptible Serratia marcescens assessed as intermediate isolate by broth microdilution method
[60] = test system: Serratia marcescens; assay: Antimicrobial activity against Ceftazidime non-susceptible Serratia marcescens assessed as resistant isolate by broth microdilution method
[61] = Streptococcus pneumoniae, read-out: MIC90

Compound: C[C@@H](O)[C@H]1C(=O)N2C(C(=O)O)=C(S[C@@H]3CN[C@H](C(=O)Nc4cccc(C(=O)O)c4)C3)[C@H](C)[C@H]12
- Activity [1]: 94.5%
- Activity [2]: 39.6%
- MIC90 [3]: 0.5 µg/mL (≈ 1.05 µM)
- MIC90 ([3]; Staphylococcus aureus, read-out: MIC90): 0.25 µg/mL (≈ 0.526 µM)
- Activity [4]: 99.4%
- MIC90 [5]: 0.5 µg/mL (≈ 1.05 µM)
- MIC90 ([5]; Staphylococcus, read-out: MIC90): 0.25 µg/mL (≈ 0.526 µM)
- Activity [6]: 99.4%
- MIC90 [7]: 0.03 µg/mL (≈ 0.0631 µM)
- MIC90 [7, 61]: 0.03 µg/mL (≈ 0.0631 µM)
- MIC90 [8]: 2 µg/mL (≈ 4.21 µM)
- MIC90 [8, 61]: 2 µg/mL (≈ 4.21 µM)
- Activity [9]: 100%

Compound: CO/N=C(\C(=O)N[C@@H]1C(=O)N2C(C(=O)O)=C(CSc3nc(=O)c(O)nn3C)CS[C@H]12)c1csc(N)n1 [CEFTRIAXONE]
- MIC50 [10]: 0.03 µg/mL (≈ 0.0541 µM)
- MIC90 [10]: 0.25 µg/mL (≈ 0.451 µM)
- MIC50 [11]: > 64 µg/mL
- MIC90 [11]: > 64 µg/mL
- Activity [12]: 99.3%
- Activity [13]: 0.4%
- Activity [14]: 0.3%
- Activity [15]: 7.6%
- Activity [16]: 26.9%
- Activity [17]: 65.4%
- MIC50 [18]: 0.03 µg/mL (≈ 0.0541 µM)
- MIC90 [18]: 0.06 µg/mL (≈ 0.108 µM)
- MIC50 [19]: > 64 µg/mL
- MIC90 [19]: > 64 µg/mL
- Activity [20]: 98.7%
- Activity [21]: 1.1%
- Activity [22]: 0.2%
- Activity [23]: 20%
- Activity [24]: 13.3%
- Activity [25]: 66.7%
- MIC50 [26]: 0.03 µg/mL (≈ 0.0541 µM)
- MIC90 [26]: 0.12 µg/mL (≈ 0.216 µM)
- MIC50 [27]: 64 µg/mL (≈ 115 µM)
- MIC90 [27]: > 64 µg/mL
- Activity [28]: 99.3%
- Activity [29]: 0.3%
- Activity [30]: 9.1%
- Activity [31]: 8.2%
- Activity [32]: 72.7%
- MIC [33]: ≤ 0.015 µg/mL
- MIC50 [33]: ≤ 0.015 µg/mL
- MIC90 [33]: ≤ 0.015 µg/mL
- MIC [34]: 0.06 µg/mL (≈ 0.108 µM)
- Activity [35]: 99.7%
- Activity [36]: 0.3%
- Activity [37]: 100%
- Activity [38]: 0%
- MIC50 [39]: 0.25 µg/mL (≈ 0.451 µM)
- MIC90 [39]: 4 µg/mL (≈ 7.21 µM)
- MIC50 [40]: > 64 µg/mL
- MIC90 [40]: > 64 µg/mL
- Activity [41]: 91.9%
- Activity [42]: 4.7%
- Activity [43]: 3.5%
- Activity [44]: 0%
- Activity [45]: 6.8%
- Activity [46]: 93.2%
- MIC50 [47]: 0.12 µg/mL (≈ 0.216 µM)
- MIC90 [47]: 0.5 µg/mL (≈ 0.902 µM)
- MIC50 [48]: 64 µg/mL (≈ 115 µM)
- MIC90 [48]: > 64 µg/mL
- Activity [49]: 97.8%
- Activity [50]: 1.1%
- Activity [51]: 1.8%
- Activity [52]: 54.5%
- MIC50 [53]: 0.25 µg/mL (≈ 0.451 µM)
- MIC90 [53]: 1 µg/mL (≈ 1.8 µM)
- MIC50 [54]: 64 µg/mL (≈ 115 µM)
- MIC90 [54]: > 64 µg/mL
- Activity [55]: 98.1%
- Activity [56]: 1.4%
- Activity [57]: 0.6%
- Activity [58]: 10%
- Activity [59]: 30%
- Activity [60]: 60%
